Read-outs that look alike come from different tables or passages of the source.
What was measured:
[1] = system: tau; test: tau-1 immunoreactivity in primary cell cultures (western blot); type: cell-based, rat; details: cortical and hippocampal cultures, 1-100 μM
Experimental: Primary cell cultures were grown as described in EXAMPLE 38. Cell supernatants were removed and the cells were washed once in medium prior to the addition of cold phosphate buffre saline ph=7.4 (PBS) solution containing 0.2 mM EDTA. Cells were scraped using a rubber policeman, transferred to Eppendorf tubes, and centrifuged at 4° C. Cell pellets were resuspended in lysis buffer (EDTA 5 mM, Tris 50 mM, Triton 1%, NaCl 150 mM) containing protease inhibitors (5 units/ml apronitin, […] and 0.1 mM PMSF, Sigma) and subjected to centrifugation at 4° C. Supernatants were transferred into Eppendorf tubes and kept at −20° C. till analyzed. The extent of tau-1 immunoreactivity (an antibody that recognizes a non-phosphorylated tau at Ser^199) was determined by western blots.

[2] = Morris water maze in C57BL/10SnJ (small hippocampus) vs C57BL6J mice; type: in vivo; details: for reversal test, swimming speed: normal hippocampi mice, AF150(S) 0.5 mg/kg, AF267B 1 mg/kg
Experimental: C57BL/10SnJ (B10) mice were selected due to their small hippocampi and decreased number of hippocampal pyramidal neurons; the cell loss seemed to be associated with poor spatial learning.
Each group of mice was randomly divided into 7 treatment groups (n=12-14/group). […] All tested compounds and saline were administered once a day for 4 days before starting the behavioral testing, and then for the duration of the 5-day experiment, 30 minutes before testing.
Training: Each mouse was trained for four consecutive days, four trials (one block) per day, in which the platform position remained constant and was located in the center of the southeast quadrant of the pool. Within each block of four trials, each mouse started at each of the starting locations, but the sequence of locations was randomly selected. A trial consisted of placing a mouse by hand into the water facing the wall of the pool at one of four starting locations, north, south, east or west, around the pool's perimeter. Escape latency (the time to find the platform), path length (the distance traveled by the mouse) and speed (the swimming rate of the mouse) were recorded on each trial by the monitoring system.
For each mouse, the path length, escape latency, and swimming speed of the four trials on each of the 4 training days were grouped into blocks (one block for each day). […] Specific comparisons were performed, using the simple main effects contrasts analysis, which is specifically suited for testing significant interactions.
Transfer test. During trial No. 17, on the fourth day, the platform was entirely removed from the pool (a probe trial). In this trial, the mouse was placed into the water for a limited period (30 s), and its spatial bias was measured by recording the relative distribution of escape latency and path length over the four quadrants of the pool.
Reversal test. During trials 18-21, on the fifth day, the platform position was changed to the northwest quadrant, opposite to the training quadrant Thus, during reversal learning, the platform location was moved relative to the configuration of objects within the room, but the pool occupied the same place within the room throughout the entire experiment. Testing of the […] and measures taken were the same as in training.
For each mouse, the escape latency, path length and swimming speed of the reversal test (trials No. 18-21) were grouped into one block.

[3] = system: APPs secretion; test: APPs secretion in rat primary hippocampal, cortical and spinal cord cultures; type: cell-based; details: 100 μM, 1 h
[4] = Passive avoidance in trihexyphenidyl treated rats; type: in vivo, rat; details: for Trihexyphenidyl-rats-Passive avoidance, effect: AF292 0.03, 0.05, 0.1, 0.3, 0.5 mg/kg p.o., AF267B 0.5, 1, 5; for Trihexyphenidyl-rats-Passive avoidance, MED: p.o.
From the text: Trihexyphenidyl is a selective M1 muscarinic antagonist that crosses the blood brain barrier and induces memory and learning impairments (Bymaster et al. J Pharmacol Exp Ther 267: 16-24, 1993. Roldan et al Neurosci. Lett. 230: 93-96, 1997; Kimura et al Brain Res. 834: 6-12, 1999).
Naive Wistar rats were used in the experiments below. The passive avoidance (PA) task is comprised of training (acquisition) phase and a retention phase. In the training procedure each rat was individually placed in the small illuminated compartment and after 60 sec. of familiarization/adaptation, the door to the large compartment was opened and the latency to enter was measured (Initial Latency). Immediately following entry into the dark compartment, the door was closed and inescapable foot shock (0.6 mA for 3 sec) was delivered through the grid floor. A cutoff point of 180 sec was used for initial latency. […] After the acquisition trial the rat was returned to its home cage. Retention of the passive avoidance task was measured 24 h later, by again placing the rat in the light compartment and after a 60 sec adaptation interval, the door was opened and the latency to renter the dark compartment was measured. A cutoff point of 300 sec was used for retention latency.

[5] = Pharmacokinetic study in dogs; type: in vivo, Beagle dog; details: for bioavailability: Beagle, dog, plasma, po, read-out: Bioavailability (% F)
From the text: The results of the PK profile of AF292 in rats and Beagle dogs (overnight fasting; drug administered in water solution; gavage) are listed in Table 1.

[6] = target: T1, human M1 receptor (Homo sapiens, UniProt P11229); test: PI hydrolysis, human M1; type: cell-based
T1 construct: expressed in transfected cells
T1 sequence (P11229 1-460): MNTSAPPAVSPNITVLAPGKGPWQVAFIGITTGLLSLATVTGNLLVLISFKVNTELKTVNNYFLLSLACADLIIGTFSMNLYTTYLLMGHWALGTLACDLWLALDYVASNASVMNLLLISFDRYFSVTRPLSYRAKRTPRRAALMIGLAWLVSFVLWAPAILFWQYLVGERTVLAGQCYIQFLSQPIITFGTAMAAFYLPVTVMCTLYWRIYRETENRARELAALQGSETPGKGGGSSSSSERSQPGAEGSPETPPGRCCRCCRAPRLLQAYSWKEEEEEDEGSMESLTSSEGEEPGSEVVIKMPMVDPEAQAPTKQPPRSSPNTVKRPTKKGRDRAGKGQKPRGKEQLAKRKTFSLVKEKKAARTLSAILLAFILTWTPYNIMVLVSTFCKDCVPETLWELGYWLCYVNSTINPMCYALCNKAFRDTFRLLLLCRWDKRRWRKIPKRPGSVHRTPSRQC

[7] = target: rat M1 mAChR (Rattus norvegicus, UniProt P08482); test: PI turnover, rat M1 mAChR; type: cell-based
[8] = Morris water maze in aged rats; type: in vivo, rat; details: for reversal learning: AF267B 1 mg/kg, AF292 1 and 0.5 mg/kg po
From the text: Old (22-24 months old) and young (three months old) Sprague-Dawley rats had been tested in the MWM.

[9] = system: GSK-3β; test: GSK-3β activity in rat hippocampal neurons; type: cell-based; details: 10 μM with Aβ fibrils 10 μM (fibrils alone 370%)
Experimental: This study was performed in rat hippocampal primary cell cultures using the methods described by Garrido J L et al. (FASEB J 2002; 16:1982).

[10] = normal hippocampus mice, AF150(S) at 1 mg/kg
[11] = small hippocampus mice, both doses
[12] = small hippocampus mice, AF150(S) both doses, AF267B the higher dose
[13] = small hippocampus mice, AF compounds 0.5 and 1 mg/kg i.p., rivastigmine, nicotine 1 mg/kg i.p.

Chain of rat M1 mAChR (P08482 whole entry): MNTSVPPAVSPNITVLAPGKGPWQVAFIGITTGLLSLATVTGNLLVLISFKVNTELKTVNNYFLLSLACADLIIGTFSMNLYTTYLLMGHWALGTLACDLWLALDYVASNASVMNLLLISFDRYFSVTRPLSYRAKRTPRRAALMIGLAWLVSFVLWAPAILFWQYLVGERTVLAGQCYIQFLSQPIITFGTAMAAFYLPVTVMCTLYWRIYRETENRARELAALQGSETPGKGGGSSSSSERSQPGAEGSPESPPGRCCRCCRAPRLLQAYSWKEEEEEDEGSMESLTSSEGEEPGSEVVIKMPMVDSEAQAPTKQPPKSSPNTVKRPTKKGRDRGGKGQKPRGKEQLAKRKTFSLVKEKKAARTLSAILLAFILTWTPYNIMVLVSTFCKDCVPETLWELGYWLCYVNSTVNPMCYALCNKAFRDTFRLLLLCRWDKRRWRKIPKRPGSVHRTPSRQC

SMILES	tau-1 immunoreactivity (non-phosphorylated tau) [1]	reversal test, swimming speed [2]	training, escape latency ([2]; normal hippocampus mice)	training, swimming speed ([2]; normal hippocampus mice)	training, swimming speed ([2]; small hippocampus mice)	transfer test, spatial bias ([2]; small hippocampus mice)	reversal test, escape latency [2, 11]	training, path length [2, 12]	training, escape latency [2, 13]	APPs secretion, fold over control [3]	Trihexyphenidyl-rats-Passive avoidance, effect [4]	Trihexyphenidyl-rats-Passive avoidance, MED [4]	PI turnover vs. CCh (as 100%) [6]	PI turnover vs. CCh (as 100%) [7]	reversal learning [8]	also measured
CC1=NCC2(CCN(C)CC2)S1 [AF150(S), 2,8-Dimethyl-1-thia-3,8-diaza-spiro[4.5]dec-2-ene]	effective in elevating tau immunoreactivity	significantly decreased	increased the escape latencies	impaired the swimming speed	enhancing effect of AF150(S) was equal in both doses	complete spatial bias	improved the escape latency	positively affected the performance	positively affected the training performance	2.8 fold	–	–	–	–	–	reversal test, escape latency ([2]; normal hippocampus mice, AF150(S) at 0.5 mg/kg): impaired the escape latency; reversal test, path length [2, 10]: impairment of reversal learning; transfer test, spatial bias [2, 10]: only a partial spatial bias; training, path length ([2]; normal hippocampus mice, AF150(S) only the higher dose): impaired the path length
CC[C@@H]1SC2(CCNCC2)NC1=O [AF292, (S)-2-Ethyl-1-thia-4,8-diaza-spiro[4.5]decan-3-one]	–	–	–	–	–	–	–	–	–	–	positive effects	≤ 0.03 mg/kg	~35%	PI, rat M1 mAChR; 50%	did not reach significance	Trihexyphenidyl-rats-Passive avoidance, duration ([4]; rat, in vivo): LONG DURATION OF ACTION; potency among the tested agonists ([4]; rat, in vivo): most potent compound among the tested agonists; bioavailability ([5]; Dogs, 5 mg/kg. p.o.): 70%; probe trial, spatial bias ([8]; both doses (1 and 0.5 mg/kg po)): tendency for partial spatial bias
CC[C@@H]1SC2(CCN(C)CC2)NC1=O [AF267B, (S)-2-ethyl-8-methyl-1-thia-4,8-diaza-spiro[4.5]decan-3-one]	effective in elevating tau immunoreactivity	significantly decreased	did not significantly affect the escape latencies	had no such effect	enhanced the swimming speed in a dose dependent manner	complete spatial bias	improved the escape latency	positively affected the performance	positively affected the training performance	2.8 fold	0.5, 1, 5 positive effects	MED 0.1-0.5 mg/kg, p.o.	~66%	PI, rat M1 mAChR: 75%	improved significantly the reversal learning	GSK-3β activity vs. control (100%) [9]: 150%; bioavailability ([5]; Dogs., 1 mg/kg, p.o.): 53%; Tmax ([5]; Dogs., 1 mg/kg, p.o.): 34.8 to 45 min; swimming ability [8]: no significant effect on the swimming ability; learning ([8]; 1 mg/kg): tendency for improvement

From patent US7439251B2, “Methods and compositions for treatment of central and peripheral nervous system disorders and novel compounds useful therefor” (Israel Institute for Biological Research, priority 2002, dated 2008)
